Measured values taken from US9850247B2 (Almac Discovery Limited, priority 2013, dated 2017).

Test: Kinetic solubility in PBS buffer (Method 5)
Assay type: physicochemical
Settings: aqueous buffer, kinetic from dmso stock; PBS buffer pH 7.4
Experimental: [formula] [formula] [formula] where V=Incubation volume (μL)/number of cells Method 5: Determination of Kinetic Solubility (in PBS Buffer)
Test compounds (5 μL; 10 mM DMSO stock) were added to 245 μL 10 of PBS buffer pH 7.4 (Dulbecco A) in a Millipore MultiScreen® Solubility Filter plate and mixed at 300 rpm at room temperature on a plate shaker for 90 minutes. Meanwhile 5-points calibration curves for each compound were established in a mixture of acetonitrile/PBS buffer 15 (top concentration 200 μM). After filtration and matrix match, the calibration and assay plates were analysed on a Bioteck Synergy 4 plate reader (240-400 nm). Final concentration of the test compound in the filtrate was calculated using the slope of the calibration curve. All 20 measurements were carried out in triplicate.

solubility kinetic at 90 min [µM] | SMILES
> 150 | CN1CN(c2c(Cl)cccc2Cl)C(=O)c2cnc(Nc3ccc(N4CCNCC4)cc3)nc21 [drawing 383]
> 150 | Cc1cc(Nc2ncc3c(n2)N(C)CN(c2c(Cl)cccc2Cl)C3=O)ccc1N1CCNCC1 [drawing 385]
< 50 | Cc1cn(-c2c(Cl)cccc2Cl)c(=O)c2cnc(Nc3ccc(N4CCNCC4)cc3)nc12 [reference compound]
< 50 | Cc1cc(Nc2ncc3c(=O)n(-c4c(Cl)cccc4Cl)cc(C)c3n2)ccc1N1CCNCC1 [reference compound]
